Patent EP1052287A2, “Complex for transferring an anionic substance of interest into a cell” (TRANSGENE S.A., priority 1999, dated 2000)
Where no end group is shown, it is not given here.

Tests used:
[1] = Size of peptide/DNA complexes by quasi-elastic light scattering; format: physicochemical; details: complexes (-/+) [1:4], 6 µg DNA, 500 µl
Procedure: Sizes of complexes prepared with a plasmid DNA (PTG11033; see EP-A 890 32, 9.6 kb) and the C1qA (4-26) peptide (SEQ ID NO:1)see Table I) were evaluated. Complexes were formulated either in 5% glucose or in ultrafiltrated foetal calf serum (YM10 Amicon membrane). Formulation was made in 500 µl buffer, with 6 µg DNA and the quantity of peptide necessary to form a [1:4], [-:+] complex. As a control a polylysine SV40 NLS peptide was used. […] When oxidized, the dimerized C1qA peptide could form even smaller complexes, whatever the formulation buffer used. The reasonable sizes obtained in ultrafiltrated serum with C1qA peptides is an advantage for the use of this peptide rather than polylysine derivatives.
Complexes (-/+):[1:4], 6 µg DNA, 500 µl. Size measures: quasi-elastic light scattering, COULTER N4+.

plasmid pTG11236 = test: Gel retardation assay (Example 4); format: binding
Procedure: (§1) Gel retardation assay was performed with C1qA (4-26) (SEQ ID NO:1) in several buffers: PBS, TBS, 5% glucose, or ultrafiltrated serum (YM10 Amicon membrane). DNA and peptides have been mixed at charge ratios [-/+] of [1:4], [1:1] and [1:0.2].
Gel retardation assay was performed with peptides SEQ ID NO: 1, SEQ ID NO: 2, SEQ ID NO: 3, SEQ ID NO: 7, SEQ ID NO: 8, SEQ ID NO: 9, SEQ ID NO: 10 , SEQ ID NO: 11, SEQ ID NO: 12, SEQ ID NO: 13, in various media : 5% glucose, 6% Elohes (Fresenius Kabi) and ultrafiltrated serum (YM10 Amicon membrane). Technical conditions are similar to Example 2. DNA and peptides have been mixed at 0.36, 1.44 and 1.8 nmoles of peptide per µg of DNA which correspond to the following charge ratios N/P: […]

plasmid pTGl1033 = test: Gel retardation assay, agarose gel electrophoresis (Example 2); format: binding
Procedure: as §1

[2] = 1.44 nmoles of peptide per µg of DNA
[3] = 1.8 nmoles of peptide per µg of DNA

Substance	Sizes in 5% glucose [1]	Sizes in ultrafiltrated serum [1]	retardation of the complexed plasmid DNA (plasmid pTG11236; [2])	retardation of the complexed plasmid DNA (plasmid pTG11236; [3])	gel retardation of DNA (plasmid pTGl1033; charge ratio [-/+] [1:1])	gel retardation of DNA (plasmid pTGl1033; charge ratio [-/+] [1:4], PBS, TBS, 5% glucose or ultrafiltrated serum, 0.8% agarose, TBE)
SEQ ID NO: 1: synthetic polypeptide consisting of SEQ ID NO:1, C1qA (4-26) of the C1q subunit of C1 complement factor (CRAPDGKKGEAGRPGRRGRPGLK; UniProt P02745 26-48, looked up, fragment)	1µm	300-500 nm	complete retardation	complete retardation	significative retardation	strong association of DNA to the peptides
SEQ ID NO: 3: C1qA (76-92) peptide (GIKGTKGSPGNIKDQPR; UniProt P02745 98-114, looked up, fragment)			complete retardation	complete retardation		
SP-1052 oxidized: oxidized, dimerized C1qA (4-26) peptide (CRAPDGKKGEAGRPGRRGRPGLK; also: oxidized disulfide-linked dimer; UniProt P02745 26-48, looked up, fragment)	200 nm	300 nm				
